ChEMBL document CHEMBL1151339, “Antitumor agents from bohemic acid complex, III. The isolation of marcellomycin, musettamycin, rudolphomycin, mimimycin, collinemycin, alcindoromycin, and bohemamine” (J Nat Prod, 1980)
Converted amounts (≈) assume the structure as drawn.

Key:
[1] = system: L1210; experiment: Antitumor activity against mouse L1210 cells xenografted in BDF1 mouse assessed as median survival time at 12.8 mg/kg, ip; assay type: functional; details: route intraperitoneal
[2] = system: L1210; experiment: Antitumor activity against mouse L1210 cells xenografted in BDF1 mouse assessed as change in tumor average weight at 51.2 mg/kg, ip; assay type: functional; details: route intraperitoneal
[3] = system: Streptococcus pneumoniae; experiment: Antibacterial activity against Streptococcus pneumoniae A-9585 by 2-fold tube dilution method; assay type: functional
[4] = system: L1210; experiment: Antitumor activity against mouse L1210 cells xenografted in BDF1 mouse assessed as median survival time at 1.6 mg/kg, ip; assay type: functional; details: route intraperitoneal
[5] = system: Streptococcus pyogenes; experiment: Antibacterial activity against Streptococcus pyogenes A-9604 by 2-fold tube dilution method; assay type: functional
[6] = system: Pseudomonas aeruginosa; experiment: Antibacterial activity against Pseudomonas aeruginosa A-9843A by 2-fold tube dilution method; assay type: functional
[7] = system: L1210; experiment: Antitumor activity against mouse L1210 cells xenografted in BDF1 mouse assessed as median survival time at 3.2 mg/kg, ip; assay type: functional; details: route intraperitoneal
[8] = system: L1210; experiment: Antitumor activity against mouse L1210 cells xenografted in BDF1 mouse assessed as change in tumor average weight at 12.8 mg/kg, ip; assay type: functional; details: route intraperitoneal
[9] = system: L1210; experiment: Antitumor activity against mouse L1210 cells xenografted in BDF1 mouse assessed as change in tumor average weight at 25.6 mg/kg, ip; assay type: functional; details: route intraperitoneal
[10] = system: Mus musculus; experiment: Toxicity in BDF1 mouse xenografted with mouse L1210 cells assessed as survival at 1.6 mg/kg, ip after 5 days; assay type: organism-based; parameters: dose 1.6 mg/kg, route intraperitoneal; details: in vivo, 120 h
[11] = system: L1210; experiment: Antitumor activity against mouse L1210 cells xenografted in BDF1 mouse at 3.2 mg/kg, ip relative to control; assay type: functional; details: route intraperitoneal
[12] = system: Enterobacter cloacae; experiment: Antibacterial activity against Enterobacter cloacae A-9659 by 2-fold tube dilution method; assay type: functional
[13] = system: Candida albicans; experiment: Antifungal activity against Candida albicans A15049 by 2-fold tube dilution method; assay type: functional
[14] = system: L1210; experiment: Antitumor activity against mouse L1210 cells xenografted in BDF1 mouse at 51.2 mg/kg, ip relative to control; assay type: functional; details: route intraperitoneal
[15] = system: L1210; experiment: Antitumor activity against mouse L1210 cells xenografted in BDF1 mouse assessed as change in tumor average weight at 6.4 mg/kg, ip; assay type: functional; details: route intraperitoneal
[16] = system: Pichia kudriavzevii; experiment: Antifungal activity against Candida krusei A15052 by 2-fold tube dilution method; assay type: functional
[17] = system: Serratia marcescens; experiment: Antibacterial activity against Serratia marcescens A20019 by 2-fold tube dilution method; assay type: functional
[18] = system: Enterococcus faecalis; experiment: Antibacterial activity against Streptococcus faecalis A20688 by 2-fold tube dilution method; assay type: functional
[19] = system: Klebsiella pneumoniae; experiment: Antibacterial activity against Klebsiella pneumoniae A15130 by 2-fold tube dilution method; assay type: functional
[20] = system: Candida albicans; experiment: Antifungal activity against Candida albicans A-9540 by 2-fold tube dilution method; assay type: functional
[21] = system: Staphylococcus; experiment: Antibacterial activity against penicillin resistant Staphylococcus A-9606 by 2-fold tube dilution method; assay type: functional
[22] = system: Candida albicans; experiment: Antifungal activity against Candida albicans A15050 by 2-fold tube dilution method; assay type: functional
[23] = system: Mus musculus; experiment: Toxicity in BDF1 mouse xenografted with mouse L1210 cells assessed as survival at 12.8 mg/kg, ip after 5 days; assay type: organism-based; parameters: dose 12.8 mg/kg, route intraperitoneal; details: in vivo, 120 h
[24] = system: Proteus mirabilis; experiment: Antibacterial activity against Proteus mirabilis A-9900 by 2-fold tube dilution method; assay type: functional
[25] = system: Escherichia coli; experiment: Antibacterial activity against Escherichia coli A15119 by 2-fold tube dilution method; assay type: functional
[26] = system: Staphylococcus aureus; experiment: Antibacterial activity against Staphylococcus aureus A-9497 by 2-fold tube dilution method; assay type: functional
[27] = system: L1210; experiment: Antitumor activity against mouse L1210 cells xenografted in BDF1 mouse at 6.4 mg/kg, ip relative to control; assay type: functional; details: route intraperitoneal
[28] = system: Microsporum canis; experiment: Antifungal activity against Microsporum canis A-9872 by 2-fold tube dilution method; assay type: functional
[29] = system: Candida tropicalis; experiment: Antifungal activity against Candida tropicalis A15051 by 2-fold tube dilution method; assay type: functional
[30] = system: Mus musculus; experiment: Toxicity in BDF1 mouse xenografted with mouse L1210 cells assessed as survival at 3.2 mg/kg, ip after 5 days; assay type: organism-based; parameters: dose 3.2 mg/kg, route intraperitoneal; details: in vivo, 120 h
[31] = system: L1210; experiment: Antitumor activity against mouse L1210 cells xenografted in BDF1 mouse assessed as median survival time at 6.4 mg/kg, ip; assay type: functional; details: route intraperitoneal
[32] = system: Proteus vulgaris; experiment: Antibacterial activity against Proteus vulgaris A21559 by 2-fold tube dilution method; assay type: functional
[33] = system: Mus musculus; experiment: Toxicity in BDF1 mouse xenografted with mouse L1210 cells assessed as survival at 6.4 mg/kg, ip after 5 days; assay type: organism-based; parameters: dose 6.4 mg/kg, route intraperitoneal; details: in vivo, 120 h
[34] = system: L1210; experiment: Antitumor activity against mouse L1210 cells xenografted in BDF1 mouse assessed as change in tumor average weight at 3.2 mg/kg, ip; assay type: functional; details: route intraperitoneal
[35] = system: L1210; experiment: Antitumor activity against mouse L1210 cells xenografted in BDF1 mouse at 25.6 mg/kg, ip relative to control; assay type: functional; details: route intraperitoneal
[36] = system: L1210; experiment: Antitumor activity against mouse L1210 cells xenografted in BDF1 mouse assessed as median survival time at 25.6 mg/kg, ip; assay type: functional; details: route intraperitoneal
[37] = system: L1210; experiment: Antitumor activity against mouse L1210 cells xenografted in BDF1 mouse at 12.8 mg/kg, ip relative to control; assay type: functional; details: route intraperitoneal
[38] = system: Trichophyton mentagrophytes; experiment: Antifungal activity against Trichophyton mentagrophytes A-9870 by 2-fold tube dilution method; assay type: functional
[39] = system: L1210; experiment: Antitumor activity against mouse L1210 cells xenografted in BDF1 mouse assessed as change in tumor average weight at 1.6 mg/kg, ip; assay type: functional; details: route intraperitoneal
[40] = system: Escherichia coli; experiment: Antibacterial activity against Escherichia coli A20341-1 by 2-fold tube dilution method; assay type: functional
[41] = system: L1210; experiment: Antitumor activity against mouse L1210 cells xenografted in BDF1 mouse assessed as median survival time at 51.2 mg/kg, ip; assay type: functional; details: route intraperitoneal
[42] = system: L1210; experiment: Antitumor activity against mouse L1210 cells xenografted in BDF1 mouse at 1.6 mg/kg, ip relative to control; assay type: functional; details: route intraperitoneal

CC[C@@]1(O)C[C@H](O[C@H]2C[C@H](N(C)C)[C@H](O[C@H]3C[C@H](O)[C@H](O[C@@H]4C[C@H](O)[C@H](O)[C@H](C)O4)[C@H](C)O3)[C@@H](C)O2)c2c(cc3c(c2O)C(=O)c2c(O)ccc(O)c2C3=O)[C@@H]1C(=O)OC [MIMIMYCIN]
Activity [1]: 8.5 days | Activity [2]: -3.2 g | MIC [3]: 1 mg/L (≈ 1.18 µM) | Activity [4]: 7.5 days | MIC [5]: 2 mg/L (≈ 2.36 µM) | MIC [6]: > 125 mg/L | Activity [7]: 8 days | Activity [8]: -0.3 g | Activity [9]: 0.1 g | Activity [10]: Non-toxic | T/C [11]: 107% | MIC [12]: > 125 mg/L | MIC [13]: > 16 mg/L | T/C [14]: 133% | Activity [15]: -1.3 g | MIC [16]: > 16 mg/L | MIC [17]: > 125 mg/L | MIC [18]: 4 mg/L (≈ 4.73 µM) | MIC [19]: > 125 mg/L | MIC [20]: > 16 mg/L | MIC [21]: 63 mg/L (≈ 74.5 µM) | MIC [22]: > 16 mg/L | Activity [23]: Non-toxic | MIC [24]: > 125 mg/L | MIC [25]: > 125 mg/L | MIC [26]: 8 mg/L (≈ 9.46 µM) | T/C [27]: 120% | MIC [28]: > 16 mg/L | MIC [29]: > 16 mg/L | Activity [30]: Non-toxic | Activity [31]: 9 days | MIC [32]: > 125 mg/L | Activity [33]: Non-toxic | Activity [34]: 1.3 g | T/C [35]: 107% | Activity [36]: 8 days | T/C [37]: 113% | MIC [38]: > 16 mg/L | Activity [39]: 0.5 g | MIC [40]: > 125 mg/L | Activity [41]: 10 days | T/C [42]: 100%

CC[C@@]1(O)C[C@H](O[C@H]2C[C@H](N(C)C)[C@H](O[C@H]3C[C@H](O)[C@H](O)[C@@H](C)O3)[C@@H](C)O2)c2c(cc3c(c2O)C(=O)c2c(O)ccc(O)c2C3=O)[C@H]1C(=O)OC [COLLINEMYCIN]
Activity [1]: 10 days | Activity [2]: -2.5 g | MIC [3]: 2 mg/L (≈ 2.79 µM) | Activity [4]: 8 days | MIC [5]: 8 mg/L (≈ 11.2 µM) | MIC [6]: > 125 mg/L | Activity [7]: 8 days | Activity [8]: -2.3 g | Activity [9]: -4.2 g | Activity [10]: Non-toxic | T/C [11]: 107% | MIC [12]: > 125 mg/L | MIC [13]: > 16 mg/L | T/C [14]: 147% | Activity [15]: -1.2 g | MIC [16]: > 16 mg/L | MIC [17]: > 125 mg/L | MIC [18]: 63 mg/L (≈ 88 µM) | MIC [19]: > 125 mg/L | MIC [20]: > 16 mg/L | MIC [21]: 63 mg/L (≈ 88 µM) | MIC [22]: > 16 mg/L | Activity [23]: Non-toxic | MIC [24]: > 125 mg/L | MIC [25]: > 125 mg/L | MIC [26]: 16 mg/L (≈ 22.4 µM) | T/C [27]: 107% | MIC [28]: > 16 mg/L | MIC [29]: > 16 mg/L | Activity [30]: Non-toxic | Activity [31]: 8 days | MIC [32]: > 125 mg/L | Activity [33]: Non-toxic | Activity [34]: 1.3 g | T/C [35]: 147% | Activity [36]: 11 days | T/C [37]: 133% | MIC [38]: > 16 mg/L | Activity [39]: -0.3 g | MIC [40]: > 125 mg/L | Activity [41]: 11 days | T/C [42]: 107%
